Marks after values point to notes of the source that are not given here.
Columns and labels:
[1] = target: T1, human H4R (Homo sapiens, UniProt Q9H3N8); experiment: H4R radioligand displacement of [3H]histamine, HEK293 membranes; assay type: binding; set-up: expressed in transfected cells; host or cells: HEK293T (main text: HEK293), transient transfection with polyethyleneimine; conditions: for Affinity (pKi) H4R: displacement of [3H]histamine, membranes of HEK293 cells transiently expressing human H4R, mean ± SEM, at least three measurements, n.a. = non active
Protocol: For the H4R fragment screen a radioligand displacement study was performed at a 10 μM fragment concentration. Hits were assigned when the fragment displaced 50% or more of the radioligand, resulting in 56 hits (hit rate: 6%). Radioligand binding was measured by displacement of [^3H]histamine using membranes of HEK293 cells transiently expressing the human H4R.[17] For the hit compounds, affinities were determined by subsequent radioligand displacement studies.
The H4R radioligand displacement screen was performed on homogenized HEK293T cells transiently expressing the human H4R. To this end, cells were transfected with 1.25 µg H4R plasmid per million cells using the 25-kDa linear polyethyleneimine. Two days after transfection, cells were collected, washed in PBS, and stored as pellets at -20 °C. Pellets were dissolved in binding buffer and homogenized using a teflon/glass followed by sonification for 3s. Cell homogenates were incubated in 96 well plates with 10µM (final) fragment and 10nM [^3H]-histamine (13.4 Ci/mmol, Perkin Elmer) and for 1.5 hours at room temperature on a table shaker (750rpm). Incubations were terminated by rapid filtration through polyethyleneimene-coated GF/C (Perkin Elmer) filter plates. Bound radioactivity was quantified in a Wallac microbeta counter (Perkin Elmer).

[2] = target: T2, human 5-HT3AR (Homo sapiens, UniProt P46098); experiment: 5-HT3AR radioligand displacement of [3H]granisetron, HEK293 membranes; assay type: binding; conditions: for Affinity (pKi) 5-HT3AR: displacement of [3H]granisetron, membranes of HEK293 cells expressing human 5-HT3AR, mean ± SEM, at least two measurements, n.a. = non active
T2 construct: transfected with the human 5-HT3A subunit (PDB ID: P46098) in pcDNA3.1; expressed in transfected cells; cDNA in pcDNA3.1
T2 sequence (P46098 24-478): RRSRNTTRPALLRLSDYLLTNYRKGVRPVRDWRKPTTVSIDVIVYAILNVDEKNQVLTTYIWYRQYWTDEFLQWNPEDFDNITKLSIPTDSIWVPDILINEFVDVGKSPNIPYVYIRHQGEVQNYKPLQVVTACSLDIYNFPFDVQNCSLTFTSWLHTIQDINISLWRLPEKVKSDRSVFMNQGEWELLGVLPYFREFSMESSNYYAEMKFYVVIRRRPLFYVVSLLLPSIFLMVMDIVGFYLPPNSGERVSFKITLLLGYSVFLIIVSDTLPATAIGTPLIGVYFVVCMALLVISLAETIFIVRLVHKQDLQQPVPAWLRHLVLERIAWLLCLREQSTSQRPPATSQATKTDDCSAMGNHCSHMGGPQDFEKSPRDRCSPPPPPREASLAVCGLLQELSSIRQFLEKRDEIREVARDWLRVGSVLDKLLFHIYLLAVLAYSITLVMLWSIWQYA
Protocol: For the 5-HT3AR we performed a high throughput functional fragment screen[18] using a fluorescent readout (Flex Station) applying a fluorescent membrane potential dye. […] From this fragment screening we identified 70 hits for the 5-HT3A receptor (hit rate: 7%). Fragments were screened at a concentration of 100 μM using stably expressed human 5-HT3AR in HEK293 cells. Binding affinities of hits were determined using radioligand binding studies measuring [^3H]granisetron binding using membranes of HEK293 cells expressing the human 5-HT3AR.[18]
5-HT3AR were expressed in HEK293 cells transfected with the human 5-HT3A subunit ([…]: P46098) in pcDNA3.1 (Invitrogen Ltd., Paisley, UK). Stably expressing cells were clonally selected with the addition of the G-418 (Sigma Aldrich Company ltd., Dorset, UK). Cells were routinely grown in 90 mm culture dishes containing Dubelco’s Modified Eagle’s Medium DMEM / Glutamax (Gibco, Invitrogen Ltd.) and passaged when 90% confluency was reached.
[picture] For radioligand binding HEK293 cells at 90% confluency were scraped into 1 ml of ice-cold HEPES buffer (10 mM, pH 7.4) and frozen. After thawing, they were washed with HEPES buffer and homogenised using a fine-bore syringe. 50 µl of cell membranes were incubated in 0.5 ml HEPES buffer containing 0.7 nM [^3H]granisetron (~ Kd) and differing concentrations of the test compound. Competition binding (8 point) was performed on at least three separate plates of transfected cells. Non-specific binding was determined using 1 mM quipazine. Reactions were incubated for at least 24 h at 4°C, to allow compounds with slow kinetics to equilibrate. Incubations were terminated by vacuum filtration using a Brandel cell harvester (Alpha Biotech Ltd., London, UK) onto GF/B filters pre-soaked in 0.3 % polyethyleneimine. Radioactivity was determined by scintillation counting using a Beckman BCLS6500 (Fullerton, California, USA). Data were fit according to the equation:
where L is the concentration of ligand present; BL is the binding in the presence of ligand concentration L; Bmin is the binding when L = 0; Bmax is the binding when L=∞, L50 is the concentration of L which gives a binding equal to (Bmax + Bmin)/2; and nH is the Hill coefficient. Ki values were estimated from IC50 values using the Cheng-Prusoff equation^5
where Ki is the equilibrium dissociation constant for binding of the unlabeled antagonist, IC50 is the concentration of antagonist that blocks half the specific binding, [L] is the free concentration of radioligand and Kd is the equilibrium dissociation constant of the radioligand.

[3] = target: H4R; set-up: method as in PMID 18983139, PMID 19413570; conditions: Abbott H4R ligands; cited from earlier work
[4] = target: T1, human H4R; experiment: H4R radioligand binding, membranes of SK-N-MC cells; set-up: expressed in transfected cells; conditions: membranes of SK-N-MC cells transiently expressing human H4R; mean ± SEM, at least three measurements

Structure (SMILES)	Affinity (pKi) 5-HT3AR [2]	Affinity (pKi) H4R [1]	other results
CN1CCN(c2cc(-c3ccccc3)ncn2)CC1 [compound 3]		6.7 ± 0.0	
CN1CCN(c2ccc3cc(Cl)ccc3n2)CC1 [compound 7]	6.6 ± 0.3	6.2 ± 0.0	affinities for 5-HT3R and H4R compared ([2]; from affinities of Table 1): comparable affinities
Nc1nc2c(c(N3CCNCC3)n1)CCCc1ccccc1-2 [compound 13]			H4R pKi [3]: 7.1
N=C(N)NCCCc1ccccc1 [compound 6]	6.1 ± 0.1		
CN1CCC(=Cc2nc3cc(Cl)ccc3[nH]2)CC1 [compound 9]	8.8 ± 0.1		selectivity for 5-HT3R over H4R ([2]; from affinities of Table 1): 500 fold; Affinity (pKi) H4R [4]: 6.1 ± 0.1 ^b
c1cncc(Cc2c[nH]cn2)c1 [compound 1]		7.0 ± 0.1	
c1ccc(CNCCc2c[nH]cn2)cc1 [compound 2]		6.2 ± 0.1	
Clc1ccc(C2CCNC2)cc1 (stereo not shown) [compound 4]	6.1 ± 0.2		
CN1CCN(c2nc3ccccc3nc2O)CC1 [compound 8]	7.9 ± 0.3	7.2 ± 0.0	affinities for 5-HT3R and H4R compared ([2]; from affinities of Table 1): comparable affinities
c1nc(CC2CCCCC2)c[nH]1 [compound 11]	5.9 ± 0.3		affinities for 5-HT3R and H4R compared ([2]; from affinities of Table 1): comparable affinities; Affinity (pKi) H4R [4]: 6.2 ± 0.1 ^b

More lines, main results first:

Affinity (pKi) 5-HT3AR [2]	Structure (SMILES)	Affinity (pKi) H4R [1]	other results
6.0 ± 0.0	Nc1ccc2cc3ccccc3nc2c1 [compound 5]		
5.9 ± 0.1	CN1CCN(c2cc(-c3ccccc3)nc(N)n2)CC1 [compound 10]	8.2 ± 0.1	selectivity for H4R over 5-HT3R ([1]; from affinities of Table 1): 200 fold
